Measured values taken from patent US20050245399A1, “Pyrazole derivatives as herbicidal compositions containing them” (ISHIHARA SANGYO KAISHA, LTD., priority 2004, published 2005).

What was measured:
Type in all cases: in vivo
[1] = test system: crabgrass (Digitaria sanguinalis L.): DIGSA; assay: Test Example 1 pre-emergence herbicidal activity, DIGSA; conditions: Rate 63 g a.i./ha, visually observed 20th to 23rd day after application
Procedure, shortened: (§1)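 Seeds go into pots of upland field soil; one day on, the diluted formulation (500 L/ha water) is sprayed pre-emergence. Effects are scored visually 20 to 23 days post-application as 0–100% growth control.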

[2] = test system: green foxtail (Setaria viridis L.), SETVI; assay: Test Example 2 post-emergence (foliage treatment) herbicidal activity, SETVI
Procedure, shortened: (§2)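 A small sprayer delivered the diluted WP or EC formulation (500 L/ha water, 0.1% v/v spreader) over emerged seedlings in upland soil pots. Damage relative to untreated plants was graded visually from 0 to 100% three weeks or so later (days 20-23).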

[3] = test system: barnyardgrass (Echinochloa crus-galli L.): ECHCG; assay: Test Example 1 pre-emergence herbicidal activity, ECHCG; conditions: Rate 63 g a.i./ha, visually observed 20th to 23rd day after application
Procedure, shortened: as §1

[4] = test system: prickly sida (Sida spinosa L.), SIDSP; assay: Test Example 2 post-emergence (foliage treatment) herbicidal activity, SIDSP
Procedure, shortened: as §2

[5] = test system: soybean (Glycine max Merr.): GLXMA; assay: Test Example 1 pre-emergence herbicidal activity, GLXMA; conditions: Rate 63 g a.i./ha, visually observed 20th to 23rd day after application
Procedure, shortened: as §1

[6] = test system: crabgrass (Digitaria sanguinalis L.), DIGSA; assay: Test Example 2 post-emergence (foliage treatment) herbicidal activity, DIGSA
Procedure, shortened: (§3)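 Sow in upland soil; grow to leaf stage (barnyardgrass 1.1-2.1, crabgrass 1.0-2.0, pigweed 0.1-1.5, rice 1.0-2); spray foliage at a fixed active ingredient rate in 500 L/ha water with 0.1% (v/v) spreader; rate growth control visually at 20-23 days on a 0-100% scale.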

[7] = test system: green foxtail (Setaria viridis L.): SETVI; assay: Test Example 1 pre-emergence herbicidal activity, SETVI; conditions: Rate 63 g a.i./ha, visually observed 20th to 23rd day after application
Procedure, shortened: as §1

[8] = test system: barnyardgrass (Echinochloa crus-galli L.), ECHCG; assay: Test Example 2 post-emergence (foliage treatment) herbicidal activity, ECHCG
Procedure, shortened: as §3

[9] = test system: rice (Oryza sativa L.): ORYSA; assay: Test Example 1 pre-emergence herbicidal activity, ORYSA; conditions: Rate 63 g a.i./ha, visually observed 20th to 23rd day after application
Procedure, shortened: as §1

[10] = test system: redroot pigweed (Amaranthus retroflexus L.), AMARE; assay: Test Example 2 post-emergence (foliage treatment) herbicidal activity, AMARE
Procedure, shortened: as §3

[11] = test system: prickly sida (Sida spinosa L.): SEDSP; assay: Test Example 1 pre-emergence herbicidal activity, SIDSP; conditions: Rate 63 g a.i./ha, visually observed 20th to 23rd day after application
Procedure, shortened: as §1

[12] = test system: japanese ribbon wapato (Sagittaria pygmaea: SA GPY); assay: Test Example 3 water application herbicidal activity (paddy), SAGPY; conditions: 63 g a.i./ha, water application under submerged condition, tubers planted, visually observed 14th day after application; 0 = untreated control, 100 = complete kill
Procedure, shortened: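 Submerged application in flooded paddy soil (3–4 cm water); weeds treated at 0.5-leaf stage, transplanted rice 4 d after transplanting. Scored visually as % growth control: weeds at 14 d, rice at 21 d.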

[13] = test system: wheat (Triticum aestivum L.), TRZAX; assay: Test Example 2 post-emergence (foliage treatment) herbicidal activity, TRZAX
Procedure, shortened: as §2

[14] = test system: common cocklebur (Xanthium strumarium L.), XANST; assay: Test Example 2 post-emergence (foliage treatment) herbicidal activity, XANST
Description: Upland field soil was put into a 1/170,000 ha pot, and seeds of various plants were sown. Then, when the plants reached predetermined leaf stages {1. barnyardgrass (Echinochloa crus-galli L.), ECHCG: 1.1-2.1 leaf stage, 2. crabgrass (Digitaria sanguinalis L.), DIGSA: 1.0-2.0 leaf stage, 3. green foxtail (Setaria viridis L.), SETVI: 1.0-2.2 leaf stage, 4. redroot pigweed (Amaranthus retroflexus L.), AMARE: 0.1-1.5 leaf stage, 5. prickly sida (Sida spinosa L.), SIDSP: 0.1-0.6 leaf stage, 6. velvetleaf (Abutilon theophrasti), ABUTH: 0.1-0.6 leaf stage, 7. common cocklebur (Xanthium strumarium L.), XANST: 0.1 leaf stage, 8. rice (Oryza sativa L.), ORYSA; 1.0-2 leaf stage, 9. wheat (Triticum aestivum L.), TRZAX: 2.3-3.5 leaf stage, 10. corn (Zea mays L.), ZEAMXN 2.1-2.6 leaf stage, 11. soybean (Glycine max Merr.), GLXMA: primary leaf stage}, a wettable powder or emulsifiable concentrate having the compound of the present invention formulated in accordance with a usual formulation method, was weighed so that the active ingredient would be a predetermined amount, and diluted with water in an amount of 500 L/ha. To the diluted solution, 0.1% (v/v) of an agricultural spreader was added. The herbicide adjusted was applied by a small size sprayer for foliage treatment. On the 20th to 23rd day after the application of the herbicide, the growth of the respective plants was visually observed, and the herbicidal effects were evaluated by growth controlling degrees (%) ranging from 0 (equivalent to the untreated control) to 100 (complete kill), whereby the results shown in Table 5, were obtained. Compound Nos. in Table 5 correspond to Compound Nos. in Table 1 and 2 given hereinbefore.

[15] = test system: corn (Zea mays L.), ZEAMX; assay: Test Example 2 post-emergence (foliage treatment) herbicidal activity, ZEAMX
Procedure, shortened: as §2

## COc1c(Cl)cc(F)c(-c2nn(C)c(OC(F)F)c2Cl)c1N(C(=O)C=C(C)C)C(=O)C=C(C)C [Compound 1-11]
[1]
  Pre-emergence Herbicidal Activity DIGSP (growth controlling degree): 40%
[2]; 63 g a.i./ha
  growth controlling degree, SETVI: 100%
[3]
  Pre-emergence Herbicidal Activity ECHCG (growth controlling degree): 70%
[4]; 63 g a.i./ha
  growth controlling degree, SIDSP: 100%
[5]
  Pre-emergence Herbicidal Activity GLXMA (growth controlling degree): 50%
[6]; 63 g a.i./ha
  growth controlling degree, DIGSP: 40%
[7]
  Pre-emergence Herbicidal Activity SETVI (growth controlling degree): 100%
[8]; 63 g a.i./ha
  growth controlling degree, ECHCO: 70%
[9]
  Pre-emergence Herbicidal Activity ORYSA (growth controlling degree): 40%
[10]; 63 g a.i./ha
  growth controlling degree, AMARE: 100%
[11]
  Pre-emergence Herbicidal Activity SIDSP (growth controlling degree): 100%
[12]
  growth controlling degrees (%) SAGPY: 40%
[13]; 63 g a.i./ha
  growth controlling degree, TRZAX: 20%
[14]; 63 g a.i./ha
  growth controlling degree, XANST: 30%
[15]; 63 g a.i./ha
  growth controlling degree, ZEAMX: 30%

## Cn1nc(-c2c(F)cc(Cl)c(OC(F)F)c2N)c(Cl)c1OC(F)F [Compound 1-81, 3-chloro-6-[4-chloro-5-(difluoromethoxy)-1-methyl-1H-pyrazol-3-yl]-2-(difluoromethoxy)-5-fluorobenzenamine]
[1]
  Pre-emergence Herbicidal Activity DIGSP (growth controlling degree): 100%
[2]; 125 g a.i./ha
  growth controlling degree, SETVI: 100%
[3]
  Pre-emergence Herbicidal Activity ECHCG (growth controlling degree): 90%
[4]; 125 g a.i./ha
  growth controlling degree, SIDSP: 100%
[5]
  Pre-emergence Herbicidal Activity GLXMA (growth controlling degree): 20%
[6]; 125 g a.i./ha
  growth controlling degree, DIGSP: 100%
[7]
  Pre-emergence Herbicidal Activity SETVI (growth controlling degree): 100%
[8]; 125 g a.i./ha
  growth controlling degree, ECHCO: 100%
[9]
  Pre-emergence Herbicidal Activity ORYSA (growth controlling degree): 20%
[10]; 125 g a.i./ha
  growth controlling degree, AMARE: 100%
[11]
  Pre-emergence Herbicidal Activity SIDSP (growth controlling degree): 100%
[12]
  growth controlling degrees (%) SAGPY: 95%
[13]; 125 g a.i./ha
  growth controlling degree, TRZAX: 100%
[14]; 125 g a.i./ha
  growth controlling degree, XANST: 100%
[15]; 125 g a.i./ha
  growth controlling degree, ZEAMX: 90%

## COc1c(Cl)cc(F)c(-c2nn(C)c(OC(F)F)c2Cl)c1NC1CCCC1 [Compound 1-60]
[1]
  Pre-emergence Herbicidal Activity DIGSP (growth controlling degree): 10%
[2]; 63 g a.i./ha
  growth controlling degree, SETVI: 100%
[3]
  Pre-emergence Herbicidal Activity ECHCG (growth controlling degree): 0%
[4]; 63 g a.i./ha
  growth controlling degree, SIDSP: 100%
[5]
  Pre-emergence Herbicidal Activity GLXMA (growth controlling degree): 0%
[6]; 63 g a.i./ha
  growth controlling degree, DIGSP: 80%
[7]
  Pre-emergence Herbicidal Activity SETVI (growth controlling degree): 30%
[8]; 63 g a.i./ha
  growth controlling degree, ECHCO: 100%
[9]
  Pre-emergence Herbicidal Activity ORYSA (growth controlling degree): 0%
[10]; 63 g a.i./ha
  growth controlling degree, AMARE: 100%
[11]
  Pre-emergence Herbicidal Activity SIDSP (growth controlling degree): 0%
[12]
  growth controlling degrees (%) SAGPY: 60%
[13]; 63 g a.i./ha
  growth controlling degree, TRZAX: 40%
[14]; 63 g a.i./ha
  growth controlling degree, XANST: 100%
[15]; 63 g a.i./ha
  growth controlling degree, ZEAMX: 50%

## COc1c(Cl)cc(F)c(-c2nn(C)c(OC(F)F)c2Cl)c1N(C)C=O [Compound 1-6]
[1]
  Pre-emergence Herbicidal Activity DIGSP (growth controlling degree): 100%
[2]; 63 g a.i./ha
  growth controlling degree, SETVI: 100%
[3]
  Pre-emergence Herbicidal Activity ECHCG (growth controlling degree): 20%
[4]; 63 g a.i./ha
  growth controlling degree, SIDSP: 100%
[5]
  Pre-emergence Herbicidal Activity GLXMA (growth controlling degree): 0%
[6]; 63 g a.i./ha
  growth controlling degree, DIGSP: 70%
[7]
  Pre-emergence Herbicidal Activity SETVI (growth controlling degree): 50%
[8]; 63 g a.i./ha
  growth controlling degree, ECHCO: 60%
[9]
  Pre-emergence Herbicidal Activity ORYSA (growth controlling degree): 20%
[10]; 63 g a.i./ha
  growth controlling degree, AMARE: 100%
[11]
  Pre-emergence Herbicidal Activity SIDSP (growth controlling degree): 40%
[12]
  growth controlling degrees (%) SAGPY: 30%
[13]; 63 g a.i./ha
  growth controlling degree, TRZAX: 30%
[14]; 63 g a.i./ha
  growth controlling degree, XANST: 95%
[15]; 63 g a.i./ha
  growth controlling degree, ZEAMX: 30%

## COc1c(Cl)cc(F)c(-c2nn(C)c(OC(F)F)c2Cl)c1N(C=O)CC(=O)c1ccc(Cl)cc1 [Compound 1-13]
[1]
  Pre-emergence Herbicidal Activity DIGSP (growth controlling degree): 70%
[2]; 63 g a.i./ha
  growth controlling degree, SETVI: 90%
[3]
  Pre-emergence Herbicidal Activity ECHCG (growth controlling degree): 80%
[4]; 63 g a.i./ha
  growth controlling degree, SIDSP: 100%
[5]
  Pre-emergence Herbicidal Activity GLXMA (growth controlling degree): 50%
[6]; 63 g a.i./ha
  growth controlling degree, DIGSP: 70%
[7]
  Pre-emergence Herbicidal Activity SETVI (growth controlling degree): 90%
[8]; 63 g a.i./ha
  growth controlling degree, ECHCO: 80%
[9]
  Pre-emergence Herbicidal Activity ORYSA (growth controlling degree): 70%
[10]; 63 g a.i./ha
  growth controlling degree, AMARE: 100%
[11]
  Pre-emergence Herbicidal Activity SIDSP (growth controlling degree): 100%
[12]
  growth controlling degrees (%) SAGPY: 0%
[13]; 63 g a.i./ha
  growth controlling degree, TRZAX: 30%
[14]; 63 g a.i./ha
  growth controlling degree, XANST: 50%
[15]; 63 g a.i./ha
  growth controlling degree, ZEAMX: 40%

## COc1c(Cl)cc(F)c(-c2nn(C)c(OC(F)F)c2Cl)c1NC(=O)C=C(C)C [Compound 1-9]
[1]
  Pre-emergence Herbicidal Activity DIGSP (growth controlling degree): 98%
[2]; 63 g a.i./ha
  growth controlling degree, SETVI: 100%
[3]
  Pre-emergence Herbicidal Activity ECHCG (growth controlling degree): 80%
[4]; 63 g a.i./ha
  growth controlling degree, SIDSP: 100%
[5]
  Pre-emergence Herbicidal Activity GLXMA (growth controlling degree): 90%
[6]; 63 g a.i./ha
  growth controlling degree, DIGSP: 98%
[7]
  Pre-emergence Herbicidal Activity SETVI (growth controlling degree): 100%
[8]; 63 g a.i./ha
  growth controlling degree, ECHCO: 80%
[9]
  Pre-emergence Herbicidal Activity ORYSA (growth controlling degree): 80%
[10]; 63 g a.i./ha
  growth controlling degree, AMARE: 100%
[11]
  Pre-emergence Herbicidal Activity SIDSP (growth controlling degree): 100%
[12]
  growth controlling degrees (%) SAGPY: 100%
[13]; 63 g a.i./ha
  growth controlling degree, TRZAX: 40%
[14]; 63 g a.i./ha
  growth controlling degree, XANST: 70%
[15]; 63 g a.i./ha
  growth controlling degree, ZEAMX: 70%
